Assay results reported in US20200323212A1, “PEST CONTROL COMPOSITION AND USE OF SAME” (SUMITOMO CHEMICAL COMPANY, LIMITED, priority 2017, published 2020).

Tested on: ticks
Experiment: Vial contact test, tick mortality after 48 hours (Test Examples 11, 14, 15)
Type: in vivo
Method: The Colby's calculation equation is shown as Equation 1 below.
E=X+Y−X×Y/100 (Equation 1)
Zero point two (0.2) mL of the solution was dropped to a 20 mL volume of vial, and the inner wall of the vial was coated homogeneously with the chemicals, and air-dried. Thereafter, ten ticks were released in the vial, and the vials were sealed with a lid. After 48 hours, the number of died ticks were examined, and the mortality (%) was calculated by the following equation 2. The three repetitions of each application dose were conducted.
Mortality (%)=(Number of dead pests/Number of supplied pests)×100 (Equation 2)
Zero point two (0.2) mL of the solution was dropped to a 20 mL volume of a vial, and the inner wall of the vial was coated homogeneously with the chemicals, and air-dried. Thereafter, ten ticks were released in the vial, and the vials were sealed with a lid. After 48 hours, the number of died ticks were examined, and the mortality (%) was calculated by the following equation 5. The three repetitions of each application dose were conducted.
Mortality (%)=(Number of dead pests/Number of supplied pests)×100 (Equation 5)
Zero point two (0.2) mL of the solution was dropped to a 20 mL volume of a vial, and the inner wall of the vial was coated homogeneously with the chemicals, and air-dried. Thereafter, ten ticks were released in the vial, and the vials were sealed with a lid. After 48 hours, the number of died ticks were examined, and the mortality (%) was calculated by the following equation 6. The three repetitions of each application dose were conducted.
Mortality (%)=(Number of dead pests/Number of supplied pests)×100 (Equation 6)

| SMILES | Mortality (Measured value) (N,N-diethyl-m-toluamide alone 10 mg/m^2) | Mortality (Measured value) (N,N-diethyl-m-toluamide alone 20 mg/m^2) | Mortality (Measured value) (sec-butyl=2-(2-hydroxyethyl)piperidine-1-carboxylate alone 10 mg/m^2) |
| --- | --- | --- | --- |
| CCN(CC)C(=O)c1cccc(C)c1 [N,N-diethyl-m-toluamide] | 40% | 50% |  |
| CCC(C)OC(=O)N1CCCCC1CCO (stereo not drawn) [sec-butyl=2-(2-hydroxyethyl)piperidine-1-carboxylate] |  |  | 70% |
